Data from patent US20230025067A1, “SOLID LOW FOAMING IN DISSOLUTION AND LOW PH ALL-PURPOSE CLEANER AND DISINFECTANT COMPOSITIONS” (Reckitt Benckiser LLC, priority 2021, published 2023).

Legend:
[1] = Tableting and stability of R&D formulations with other citric acid grades; type: physicochemical; conditions: R&D formulations similar to Formula E1
germ = experiment: R&D germ kill testing of aqueous citric acid solutions; type: cell-based; conditions: aqueous solutions containing 2.5% w/v
Source text: As discussed above, lemon juice contains 5-8% citric acid, amongst other potentially disinfecting ingredients like malic acid, ascorbic acid, and essential oils.

Staphyloccocus aureus = conditions: 1 mg/mL solution in a 20% dimethyl sulfoxide water solution; cited from earlier work

Row | Compound | suitability for tablet formulation (hygroscopicity, tableting) [1] | germ kill results (germ) | activity against Staphyloccocus aureus (Staphyloccocus aureus)
1 | O=C(O)CC(O)(CC(=O)O)C(=O)O [Citric acid anhydrous, citric acid anhydrous] | too hygroscopic for use in a tablet formulation |  | 
2 | O=C(O)CC(O)(CC(=O)O)C(=O)O [citric acid] |  | did not produce consistent or satisfactory germ kill results | inactive
